ChEMBL document CHEMBL1126360, “-Amino acid analogues as mechanism-based inactivators of -aminobutyric acid aminotransferase” (Bioorg Med Chem Lett, 1992)

Columns and labels:
[1] = target: 4-aminobutyrate aminotransferase, mitochondrial (Sus scrofa) (UniProt P80147); assay: Rate constants for inactivation at infinite concentration for inactivation of Gamma-amino-N-butyrate transaminase
[2] = target: 4-aminobutyrate aminotransferase, mitochondrial (Sus scrofa, UniProt P80147); assay: Apparent dissociation constants for inactivation of Gamma-amino-N-butyrate transaminase
Chain of 4-aminobutyrate aminotransferase, mitochondrial (P80147 whole entry): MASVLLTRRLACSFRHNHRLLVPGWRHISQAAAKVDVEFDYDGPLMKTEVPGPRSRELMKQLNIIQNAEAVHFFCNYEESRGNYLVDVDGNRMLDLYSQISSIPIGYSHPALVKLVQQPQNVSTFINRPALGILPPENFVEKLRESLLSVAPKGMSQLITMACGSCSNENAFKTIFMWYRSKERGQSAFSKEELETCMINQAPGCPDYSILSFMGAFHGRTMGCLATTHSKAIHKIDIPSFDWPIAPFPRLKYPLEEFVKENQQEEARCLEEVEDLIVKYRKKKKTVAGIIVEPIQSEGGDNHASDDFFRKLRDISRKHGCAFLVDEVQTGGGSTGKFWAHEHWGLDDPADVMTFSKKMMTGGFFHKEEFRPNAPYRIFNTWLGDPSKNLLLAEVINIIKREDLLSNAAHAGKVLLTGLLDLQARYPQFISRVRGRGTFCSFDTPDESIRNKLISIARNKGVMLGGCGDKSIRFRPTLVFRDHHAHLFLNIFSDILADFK

Chain of 4-aminobutyrate aminotransferase, mitochondrial (Sus scrofa) (P80147 whole entry): as above

| SMILES | K inact [1] | Ki [2] |
| --- | --- | --- |
| N[C@@H](COS(=O)(=O)O)C(=O)O | 0.0055 min⁻¹ | 2.4 mM |
| C[C@](N)(CF)C(=O)O | 0.00059 min⁻¹ | 6.8 mM |
| C=C[C@](C)(N)C(=O)O | 8.5e-05 min⁻¹ | 12.8 mM |

Results, then the compound that gave them:

| K inact [1] | Ki [2] | SMILES |
| --- | --- | --- |
| 0.00093 min⁻¹ | 6.5 mM | C[C@](N)(CCl)C(=O)O |
| 0.0014 min⁻¹ | 5.7 mM | C[C@](N)(COP(=O)(O)O)C(=O)O |
